Several values for one entry are separate records, joined by “and”; a condition that tells them apart may be missing. Equal values may be shown once.
Legend:
SBC2 [1] = target: T1, SBC2 (Homo sapiens, UniProt O14508); experiment: Surface plasmon resonance (SPR) with SBC2 immobilized on the chip; type: binding; conditions: Table 2, second-round library, n = 1
T1 construct: SOCS2 (amino acids 32–198); His6 (N, cleaved yes); made in house; host or cells: E. coli BL21(DE3)
Excerpt: First, we decided to optimize the N-terminal region of 1 while maintaining the N-methylamide group at the C-terminus. To generate analogs rapidly, we employed a solid phase synthesis using methyl indole AM resin. After Fmoc deprotection, the resin was loaded with Fmoc-Tyr (PO(OBzl)2)-OH[29]. Subsequent coupling with various commercially available carboxylic acids and cleavage with TFA allowed the rapid synthesis of N-methylcarboxamide phosphotyrosines (Supplementary Fig. 1). We introduced different substituents at the N-terminus to cover a range of physicochemical properties (e.g. alicyclic, heterocyclic, aromatic with electron-withdrawing and electron-donating groups) to maximize potential interactions (see Table 1 for representative examples). Binding affinities of the synthesized compounds for SOCS2 were measured via two orthogonal biophysical binding assays: (1) surface plasmon resonance (SPR) with SBC2 immobilized on the chip (Supplementary Fig. 7); and (2) ^19F ligand-observed displacement NMR assays, providing two orthogonal biophysical measurements of dissociation constants (KD)[29],[31]. We found an excellent correlation between the KD values measured via the two techniques (Table 1). Para-substituted benzyl moieties yielded the greatest contributions to binding affinity and there were only slight differences between electron-withdrawing groups such as a methyl ester and electron-donating such as methoxy group.
SPR experiments were performed using a Biacore S200 instrument (GE Healthcare) in 20 mM HEPES pH 7.5, 150 mM NaCl, 1 mM TCEP, 0.005% Tween20, 2% DMSO buffer at 10 °C. Biotinylated SBC2 was immobilized onto a chip surface (the final surface density of biotinylated SBC2 was ~3000–4000 RU). AviTagged-SBC was biotinylated using BirA enzyme as per manufacturer’s protocol (Avidity). Compounds were serially diluted in the running buffer and injected individually: contact time 60 s, flow rate 30 μL/min, dissociation time 150 s, using a stabilization period of 30 s and syringe wash (50% DMSO) between injections. Data analysis was carried out using Biacore Evaluation Software (GE Healthcare). All data were double-referenced for reference surface and blank injection. The processed sensograms were fit to a steady-state affinity using a 1:1 binding model for KD estimation.

SBC2 [2] = target: T1, SBC2; experiment: Isothermal titration calorimetry (ITC), direct titration; type: binding; conditions: for Kd: ITC KD, direct ITC, 298 K
Method: Experiments were performed with ITC200 instrument (Malvern) in 100 mM HEPES pH 7.5, 50 mM NaCl, 0.5 mM TCEP at 298 K. The ITC titration consisted of 0.4 μl initial injection (discarded during data analysis) followed by 19 of 2 μl injections at 120 s interval between injections. 1 mM of the ligands in 2–4% DMSO were titrated into 100 μM SBC2. […] Binding data was subtracted from a control titration where ligand was titrated into buffer, and fitted using a one-set-of-site binding model to obtain dissociation constant (Kd), binding enthalpy (ΔH), and stoichiometry (N) using MicroCal PEAQ-ITC Analysis Software1.1.0.1262 and MicroCal ITC-ORIGIN Analysis Software 7.0 (Malvern).

[3] = target: T2, HiBiT-SOCS2 fusion in HeLa cells (Homo sapiens, UniProt O14508); experiment: Split-NanoLuc CETSA, live-cell mode; type: cell-based; design: Produrg CETSA screening, raw signal: reference not given here; conditions: for Produrg CETSA screening, raw signal: 50uM 20hrs
T2 construct: encoding SOCS2 (32–198) in pBiT3.1-N expression vector; expressed in transfected cells; host or cells: HeLa
T2 sequence (O14508 32-198): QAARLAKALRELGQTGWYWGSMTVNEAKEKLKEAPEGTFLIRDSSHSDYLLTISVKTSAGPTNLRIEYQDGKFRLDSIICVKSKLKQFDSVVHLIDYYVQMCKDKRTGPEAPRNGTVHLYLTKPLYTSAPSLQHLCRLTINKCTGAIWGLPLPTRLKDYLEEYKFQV
T2 sequence (Q15370 whole entry, further chain, the tested form may be a part): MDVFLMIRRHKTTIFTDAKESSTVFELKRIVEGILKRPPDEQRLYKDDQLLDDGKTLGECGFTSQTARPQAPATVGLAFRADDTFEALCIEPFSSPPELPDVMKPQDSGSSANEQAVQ
T2 sequence (Q15369 whole entry, further chain, the tested form may be a part): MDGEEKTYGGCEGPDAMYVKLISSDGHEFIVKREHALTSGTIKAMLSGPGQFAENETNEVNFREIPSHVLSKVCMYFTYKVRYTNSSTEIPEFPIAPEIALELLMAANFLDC
Method: One of the challenges with small-molecule binders displaying on-target activity with recombinant proteins, is to translate their utility to a cellular context. […] One of the advantages of CETSA is that target engagement can be monitored without the need for the development of a cell-permeable tracer molecule.
We utilized CETSA in a live-cell mode to evaluate the efficacy and rank the different prodrugs. We treated live HeLa cells with 50 μM compound (prodrugs) for 20 h and monitored Tagg shift as a proxy for the combo of prodrug permeability and unmasking (Fig. 4d). […] The observation could be because the POM group unmasking requires only esterase unlike the reliance of compounds 21–23 on esterase and phosphoramidase for unmasking an aryloxy phosphoramidate group.
N-terminal HiBiT-SOCS2 fusion was generated by encoding SOCS2 (32–198) in pBiT3.1-N expression vector (Promega). The transfection and target engagement assay were performed by modifying a NanoLuc target engagement protocol (Promega) with some small modifications. Briefly, HiBiT-SOCS2 fusion construct was transfected into HeLa cells using FuGENE HD (Promega) according to the manufacturer’s protocol. HiBiT-SOCS2 fusion construct was diluted into Transfection Carrier DNA (Promega) at a mass ratio of 1:100 or 1:10 for permeabilised and live-cell CETSA respectively. FuGENE HD was added at a ratio of 1:3 (μg DNA: μL FuGENE HD). 1 part (vol) of FuGENE HD complexes thus formed were combined with 20 parts (vol) of HeLa cells suspended at a density of 2 × 10^5 cells/mL, followed by incubation in a humidified, 37 °C + 5% CO2 incubator. After 20 h of incubation HeLa cells were detached and resuspended at a density of 2.5 × 10^5 cells/mL in Opti-MEM media without serum or phenol red but supplemented with protease inhibitor cocktail (Roche). Compounds stocks were added to cell suspension to maintain a final DMSO concentration of 1%. For the permeabilised assay format, 96-well PCR plates (Thermo) were pre-treated with digitonin to have a final well concentration of 50 μg/ml. 50 μl Opti-MEM cell suspension was then aliquoted to each well of the 96-well plate. The plates are then covered with microporous tape sheet (Qiagen) prior to incubation in a humidified, 37 °C + 5% CO2 incubator. Post-incubation we heat the PCR plates in 16-point temperature (split across two runs) curve spanning degrees 40-72 °C temperature span (CFX96 Touch Real-Time PCR Detection System, BioRad). The thermal cycler block was allowed to rise to the designated temperatures prior to placement of the PCR plates into the heating block and heat treatment for 3 min. After incubating the plates at room temperature for over 3 min, 50 μl of the Nano-Glo HiBiT Lytic mix (Promega) was added to each well. Samples were mixed by pipetting and placing the plate on an orbital shaker (600 rpm) for 5 min. 20 μl of the samples (in triplicates) were transferred to a AlphaPlate-384 plate (Perkin Elmer). Luminescence was recorded with GloMax Discover Microplate Reader (Promega). To generate apparent Tagg curves, the data is first converted to percent stabilized by relating the observed luminescence to the luminescence of the lowest temperature (40 °C) for that given sample. Data are then fitted to obtain apparent Tagg values using the Boltzmann Sigmoid equation using Graphpad Prism 9.

T1 sequence (O14508 32-198): as the sequence (O14508 32-198) above
T1 sequence (Q15370 1-104 partner limits assumed): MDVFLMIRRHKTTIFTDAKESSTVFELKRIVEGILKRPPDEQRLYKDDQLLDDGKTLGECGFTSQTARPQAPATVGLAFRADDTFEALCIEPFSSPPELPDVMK
T1 sequence (Q15369 17-112 partner limits assumed): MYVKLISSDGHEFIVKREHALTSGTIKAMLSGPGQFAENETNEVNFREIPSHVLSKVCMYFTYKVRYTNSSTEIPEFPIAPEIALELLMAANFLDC

With `CCc1cc(CNC(=O)[C@H](Cc2ccc(OP(=O)(O)O)cc2)NC(=O)Cc2ccc(F)cc2)ccc1F` [Compound 12, (S)-4-(3-((3-ethyl-4-fluorobenzyl)amino)-2-(2-(4-fluorophenyl)acetamido)-3-oxopropyl)phenyl phosphate] the Kd (SBC2 [1]) was 2.2 µM, the “ITC ΔG” value (SBC2 [2]) was -8.59 kcal/mol and the “ITC ΔH” value (SBC2 [2]) was -8.16 kcal/mol. For the same compound, the “ITC −TΔS” value (SBC2 [2]) was -0.43 kcal/mol and the Kd (SBC2 [2]) was 0.5 µM and 0.51 µM.

For `Cc1cc(CNC(=O)[C@H](Cc2ccc(OP(=O)(O)O)cc2)NC(=O)Cc2ccc(F)cc2)ccc1F` [Compound 11, (S)-4-(3-((4-fluoro-3-methylbenzyl)amino)-2-(2-(4-fluorophenyl)acetamido)-3-oxopropyl)phenyl phosphate], the Kd (SBC2 [1]) was 2.7 µM, the “ITC ΔG” value (SBC2 [2]) was -8.23 kcal/mol and the “ITC ΔH” value (SBC2 [2]) was -5.25 kcal/mol. The “ITC −TΔS” value (SBC2 [2]) was -2.98 kcal/mol and the Kd (SBC2 [2]) was 1 µM.

`C=CCc1cccc(CNC(=O)[C@H](Cc2ccc(OP(=O)(O)O)cc2)NC(=O)Cc2ccc(F)cc2)c1` [Compound 14, (S)-4-(3-((3-allylbenzyl)amino)-2-(2-(4-fluorophenyl)acetamido)-3-oxopropyl)phenyl phosphate] was tested, and the Kd (SBC2 [1]) was 2.4 µM, the “ITC ΔG” value (SBC2 [2]) was -8.61 kcal/mol and the “ITC ΔH” value (SBC2 [2]) was -6.31 kcal/mol. The “ITC −TΔS” value (SBC2 [2]) was -2.26 kcal/mol and the Kd (SBC2 [2]) was 0.48 µM.

In the case of `C=CCc1cc(CNC(=O)[C@H](Cc2ccc(OP(=O)(O)O)cc2)NC(=O)Cc2ccc(F)cc2)ccc1F` [Compound 13], the Kd (SBC2 [1]) is reported as 2.4 µM, the “ITC ΔG” value (SBC2 [2]) is reported as -8.75 kcal/mol and the “ITC −TΔS” value (SBC2 [2]) is reported as -1.62 kcal/mol. The Kd (SBC2 [2]) was 0.38 µM.

`C[C@H](NP(=O)(Oc1ccc(C[C@H](NC(=O)Cc2ccc(F)cc2)C(=O)NCc2cccc(NC(=O)CCl)c2)cc1)Oc1cccc2ccccc12)C(=O)OCc1ccccc1` (stereo partly shown) [Compound 23] was tested, and the “Produrg CETSA screening, raw signal” value ([3]; n=1, temperature point 5 of 16, temperature not given) was 69363 and 80806 and 112884, the “Produrg CETSA screening, raw signal” value ([3]; n=1, temperature point 6 of 16, temperature not given) was 96967 and 118352 and 144445 and the “Produrg CETSA screening, raw signal” value ([3]; n=1, temperature point 7 of 16, temperature not given) was 143643 and 166973 and 192783. For the same compound, the “Produrg CETSA screening, raw signal” value ([3]; n=1, temperature point 8 of 16, temperature not given) was 106216 and 128406 and 210436, the “Produrg CETSA screening, raw signal” value ([3]; n=1, temperature point 9 of 16, temperature not given) was 167377 and 176709 and 206363 and the “Produrg CETSA screening, raw signal” value ([3]; n=1, temperature point 10 of 16, temperature not given) was 186703 and 236478 and 300868. For the same compound, the “Produrg CETSA screening, raw signal” value ([3]; n=1, temperature point 11 of 16, temperature not given) was 231104 and 290174 and 305287, the “Produrg CETSA screening, raw signal” value ([3]; n=1, temperature point 12 of 16, temperature not given) was 354321 and 369048 and 401655 and the “Produrg CETSA screening, raw signal” value ([3]; n=1, temperature point 13 of 16, temperature not given) was 341517 and 349800 and 466508. The “Produrg CETSA screening, raw signal” value ([3]; n=1, temperature point 14 of 16, temperature not given) was 353173 and 365195 and 397047, the “Produrg CETSA screening, raw signal” value ([3]; n=1, temperature point 15 of 16, temperature not given) was 381815 and 407106 and 448233 and the “Produrg CETSA screening, raw signal” value ([3]; n=1, temperature point 16 of 16, temperature not given) was 423512 and 424780 and 453391. For the same compound, the “Produrg CETSA screening, raw signal” value ([3]; n=2, temperature point 1 of 16, temperature not given) was 81542 and 84696 and 155298, the “Produrg CETSA screening, raw signal” value ([3]; n=2, temperature point 2 of 16, temperature not given) was 72558 and 139894 and 123324 and the “Produrg CETSA screening, raw signal” value ([3]; n=2, temperature point 5 of 16, temperature not given) was 87834 and 139601 and 100567. For the same compound, the “Produrg CETSA screening, raw signal” value ([3]; n=2, temperature point 6 of 16, temperature not given) was 98775 and 175976 and 137381, the “Produrg CETSA screening, raw signal” value ([3]; n=2, temperature point 7 of 16, temperature not given) was 152633 and 181253 and 191364 and the “Produrg CETSA screening, raw signal” value ([3]; n=2, temperature point 8 of 16, temperature not given) was 176015 and 229873 and 213107. The “Produrg CETSA screening, raw signal” value ([3]; n=2, temperature point 9 of 16, temperature not given) was 189127 and 214945 and 246245, the “Produrg CETSA screening, raw signal” value ([3]; n=2, temperature point 10 of 16, temperature not given) was 212633 and 267460 and 262658 and the “Produrg CETSA screening, raw signal” value ([3]; n=2, temperature point 11 of 16, temperature not given) was 244590 and 322245 and 338306. The “Produrg CETSA screening, raw signal” value ([3]; n=2, temperature point 12 of 16, temperature not given) was 338485 and 407495 and 420421, the “Produrg CETSA screening, raw signal” value ([3]; n=2, temperature point 13 of 16, temperature not given) was 375692 and 455999 and 437696 and the “Produrg CETSA screening, raw signal” value ([3]; n=2, temperature point 14 of 16, temperature not given) was 432064 and 448169 and 475813. The “Produrg CETSA screening, raw signal” value ([3]; n=2, temperature point 15 of 16, temperature not given) was 397604 and 474479 and 457905, the “Produrg CETSA screening, raw signal” value ([3]; n=2, temperature point 16 of 16, temperature not given) was 400496 and 479946 and 527841 and the “Produrg CETSA screening, raw signal” value ([3]; n=3, Temp, 0C 54.1) was 44604. The “Produrg CETSA screening, raw signal” value ([3]; n=3, Temp, 0C 55) was 39796 and 47150 and 51627, the “Produrg CETSA screening, raw signal” value ([3]; n=3, Temp, 0C 56) was 45790 and 51042 and 62078 and the “Produrg CETSA screening, raw signal” value ([3]; n=3, Temp, 0C 57.1) was 31202 and 38155 and 39301. The “Produrg CETSA screening, raw signal” value ([3]; n=3, Temp, 0C 59.2) was 28243 and 27436 and 39233, the “Produrg CETSA screening, raw signal” value ([3]; n=3, Temp, 0C 62.3) was 17330 and 19655 and 29378 and the “Produrg CETSA screening, raw signal” value ([3]; n=3, Temp, 0C 66.1) was 14860 and 24999 and 29256. For the same compound, the “Produrg CETSA screening, raw signal” value ([3]; n=3, Temp, 0C 71.1) was 14600 and 19386 and 22788, the ΔT ([3]; Prodrug screen CETSA, live HeLa cells, 50 μM, 20 h, Mean n = 3) was 2.28 oC and the “ΔT, individual replicates n1-n3” value ([3]; Prodrug screen CETSA, single replicates) was 0.90 oC and 3.19 oC and 2.74 oC.

From paper PMC10564737, “Structure-based design of a phosphotyrosine-masked covalent ligand targeting the E3 ligase SOCS2” (Nature Communications, 2023)
